Test results as given in PubChem BioAssay (NCI).
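Each compound was tested at five concentrations against cells in 96-well plates for 48 hours. At the GI50, growth is halved. TGI is the concentration that stops growth completely.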

Key:
Test in all cases: inhibition of tumour cell growth, NCI panel, 48 h
HCT-15 colon = test system: HCT-15 colon
TK-10 renal = test system: TK-10 renal
MOLT-4 leukemia = test system: MOLT-4 leukemia
UACC-62 melanoma = test system: UACC-62 melanoma
SK-MEL-5 melanoma = test system: SK-MEL-5 melanoma
K-562 leukemia = test system: K-562 leukemia
NCI-H226 lung = test system: NCI-H226 lung
SF-539 CNS = test system: SF-539 CNS

Compound | TGI (HCT-15 colon) [µM] | TGI (TK-10 renal) [µM] | TGI (MOLT-4 leukemia) [µM] | TGI (UACC-62 melanoma) [µM] | TGI (SK-MEL-5 melanoma) [µM] | TGI (K-562 leukemia) [µM] | TGI (NCI-H226 lung) [µM] | TGI (SF-539 CNS) [µM] | GI50 (HCT-15 colon) [µM] | GI50 (TK-10 renal) [µM] | GI50 (MOLT-4 leukemia) [µM] | GI50 (UACC-62 melanoma) [µM] | GI50 (SK-MEL-5 melanoma) [µM] | GI50 (K-562 leukemia) [µM] | GI50 (NCI-H226 lung) [µM] | GI50 (SF-539 CNS) [µM]
CCNC(C)(C)C(SS)c1ccc(Br)cc1 (configuration not stated) | > 100 | > 100 | 69.3 | > 100 | > 100 | > 100 | > 100 | > 100 |  |  |  |  |  |  |  | 
O=S(=O)(Nc1cc(Br)c(O)c2ccccc12)c1ccc(F)cc1 | 11.3 | 32.7 | 5.33 | 3.88 | 3.35 | 8.28 | 38.9 | 5.48 | 2.95 | 18.4 | 2.31 | 1.92 | 1.79 | 3.19 | 18.3 | 2.33
N#CC(C#N)=Cc1c(-c2ccccc2)[nH]c2ccccc12 | > 47.3 | > 75.1 | > 75.1 | > 46.5 | 12.8 | > 100 | > 41.4 | 9.12 | 0.906 | 5.23 | 13.3 | 2.24 | 1.08 | 0.478 | 3.84 | 2.1
Cc1csc(/C=N/NC(=O)c2nnn(-c3ccnc4c(C(F)(F)F)cccc34)c2C)c1 | > 100 | > 100 | > 100 | > 100 | > 100 | > 100 | > 100 | > 100 | 36.9 | 41.8 | 48.8 | 74.7 | 27.2 | 35 | 79 | > 100
O=C(/C=C1\C(=O)N(Cc2ccc([N+](=O)[O-])cc2)c2ccccc21)c1ccc(OCCN2CCCCC2)cc1 | 2.48 | 2.74 | 2.73 | 2.79 | 3.04 | 2.2 | 21.4 | 2.89 | 1.19 | 1.43 | 0.456 | 1.44 | 1.67 | 0.415 | 3.14 | 1.53
O=[N+]([O-])c1cc([N+](=O)[O-])c(Cl)c(Cl)c1Cl |  | 3.65 | 5.82 | 2.64 | 3.35 | 10.9 |  |  |  | 1.8 | 0.831 | 1.31 | 1.75 | 0.725 |  | 
CCCCN(CCCC)c1ccc(C(=N)c2ccc(N(C)C)cc2)cc1 | 2.2 | 1.84 |  | 1.77 | 1.7 |  | 2.63 | 3.16 | 0.665 | 0.643 |  | 0.449 | 0.505 |  | 1.2 | 1.53
O=C(Cn1c(=O)c(-c2ccccc2)nc2ccccc21)c1ccc(Cl)cc1 | > 100 | > 100 | > 100 | > 100 | > 100 | > 100 | > 100 |  | > 100 | 25.7 | > 100 | > 100 | > 100 | > 100 | 53.5 | 
O=C(/C=C/c1ccccc1)c1c[nH]c2ccccc2c1=O | 13.2 | 5.37 | 20.8 | 18.2 | 17 | 54.8 | 17.3 | 8.81 | 2.08 | 2.08 | 3.16 | 5.09 | 4.8 | 2.74 | 4.81 | 2.55
COc1ccc(Cl)cc1Nc1nc(C(F)(F)F)ccc1C(=O)N/N=C/c1ccc([N+](=O)[O-])cc1 | 5.11 | 5.88 | 13.2 | 6.77 | 4.86 | 12.6 | 8.65 | 19.1 | 1.29 | 1.22 | 3.82 | 2.17 | 1.98 | 2.95 | 2.01 | 3.05
O=C(COc1ccc(/C=C2\Oc3ccccc3C2=O)cc1)Nc1nccs1 | > 100 | > 100 | 19.1 | > 100 | > 100 | > 100 | > 100 | > 100 | > 100 | 85.1 | 3.31 | > 100 | 64.4 | 60.1 | 60.3 | 32.5
Cc1cc2cccnc2c2ncccc12 | 21.3 | 23.9 |  | 9.19 | 10.7 |  | 8.81 | 10.8 | 0.436 | 0.713 |  | 1.28 | 1.3 |  | 1.33 | 1.83
COc1cc(/C=N/Nc2ncnc3c2cnn3C(C)C)ccc1O | > 25 | 21.3 | > 20.7 | > 20.9 | > 25 | > 25 | > 25 | 15.2 | 11 | 8.3 | 6.53 | 6.98 | 8.1 | 7.2 | 9.27 | 4.76
Cc1cc(N2CCN(C)CC2)nc(NCc2cc(Nc3ccnc4cc(Cl)ccc34)ccc2F)n1 | 8.36 | 5.82 | > 100 |  | 2.75 | 5.7 | 55.4 | 3.24 | 2.21 | 2.25 | 1.9 |  | 1.44 | 1.9 | 7.88 | 1.69
CCN(CC)C(=O)CC1=C(C)/C(=C/c2[nH]c(-c3ccc[nH]3)cc2OC)N=C1C | 0.891 | 17.3 | 39.4 |  |  |  | 6.11 | 12.2 | 0.278 | 0.466 | 0.357 |  |  |  | 0.531 | 0.498
CCOC(=O)C1=C(C)NC2SC(=O)/C(=C\c3ccccc3Cl)N2C1c1ccccc1 (configuration not stated) | > 100 | > 100 |  | > 100 | > 100 | > 100 | > 100 | > 100 | > 100 | > 100 |  | > 100 | 50.2 | > 100 | > 100 | > 100
